According to US20090004211A1, “METHOD FOR EFFECTING LOCALIZED, NON-SYSTEMIC AND SYSTEMIC, IMMUNOGENIC TREATMENT OF CANCER USING ERP57 TRANSLOCATION” (priority 2006, published 2009):
Entries after “also recorded” stand apart in the source; their conditions may differ. Non-standard residues stand in square brackets, D forms with d. Residues, ends and D or L forms follow the SMILES beside them. *: point of attachment. Nle = CCCC[C@H](N)C(=O)O; Cbz = O=C(OCc1ccccc1)*; CH2F = FC*

Legend:
CT26 tumor cells = test: Anti-tumor vaccination: treated dying CT26 cells injected s.c., challenge with live tumor cells in opposite flank; assay type: in vivo, BALB/c mice
CT26 tumors = test: Treatment of established CT26 tumors by single intratumoral injection; assay type: in vivo, BALB/c mice
Method: All animals were maintained in specific pathogen-free conditions and all experiments followed the FELASA guidelines. 3×10^6 treated CT26 cells were inoculated s.c. in […] of PBS into BALB/c six-week-old female mice, into the lower flank, while 5×10^5 untreated control cells were inoculated into the contralateral flank. For the tumorigenicity assay, 3×10^6 treated or untreated CT26 cells were injected s.c. into nu/nu mice. To assess the specificity of the immune response against CT26, injections of either 5×10^5 or 5×10^6 of CT26 were made (for the mice immunized in a standard protocol or vaccination protocol, respectively). Tumors were evaluated weekly, using a caliper. In a series of experiments, BALB/c (wild type or nu/nu) carrying palpable CT26 tumors (implanted 14 days before for wild type or 7 days before for nu/nu mice by injection of […] tumor cells) received a single intratumoral injection of […] PBS containing the same concentration of anti-cancer agents and PP1/GADD34 inhibitors as those used in vitro, as well as rCRT ([…]). For the assessment of local immune response, 3×10^5 cells were injected in 50 μl into the footpad of mice. Five days later, mice were sacrificed and the draining lymph nodes were harvested. 1×10^5 lymph node cells were cultured for 4 days alone or with 1×10^4 CT26 cells killed by a freeze-thaw cycle in 200 μl in round-bottom 96-well plates. IFN-γ was determined by ELISA.

CRT = test: Fluorescence detection of cell surface CRT (cytofluorometry); conditions: for CRT exposure at cell surface: CT26 cells, agent alone; for CRT exposure of cells treated with etoposide plus inhibitor: in combination with etoposide; for time after treatment at which CRT exposure is detectable: intact cells
Method: CT26 cells (on a glass slide or in 12-well plates) were first washed with FACS buffer (1×PBS, 5% fetus bovine serum, and 0.1% sodium azide) and then incubated with rabbit anti-mouse CRT antibody (1:100, Stressgen), or rabbit anti-mouse ERP57 antibody (abcam) in FACS buffer at 4° C. for 30 min. […] After washing three times with FACS buffer, surface CRT and ERP57 was detected by cytofluorometric analysis on a FACS Vantage. In some experiments, cells were fixed with 4% paraformaldehyde, counterstained with Hoechst (2 μM; Sigma), followed by fluorescence microscopic assessment.
Trypsinized CT26 cells were enucleated as described. Briefly, cells were treated in 2 ml of complete RPMI medium containing cytochalasin B (10 μg/ml; Sigma) and DNase I (80 U/ml; Sigma). […] Gradients containing cell suspensions were centrifugated in a prewarmed SW41 Beckman rotor at 25 000 rpm for 20 minutes at 30° C. […] Then the cell surface CRT was detected (see materials and methods) and the viability was determined by with propidium iodine staining (2 μg/ml, Sigma) for 5 min followed by cytofluorometric analysis.

ERP57 [1] = test: Fluorescence detection of cell surface ERP57 (cytofluorometry); assay type: cell-based, mouse; conditions: for ERP57 exposure at cell surface: CT26 cells, agent alone; for ERP57 exposure of cells treated with etoposide plus inhibitor: in combination with etoposide; for time after treatment at which ERP57 exposure is detectable: intact cells
Method: CT26 cells (on a glass slide or in 12-well plates) were first washed with FACS buffer (1×PBS, 5% fetus bovine serum, and 0.1% sodium azide) and then incubated with rabbit anti-mouse CRT antibody (1:100, Stressgen), or rabbit anti-mouse ERP57 antibody (abcam) in FACS buffer at 4° C. for 30 min. Cells reacted with anti-rabbit IgG (H+L) Alexa fluor 488-conjugates (1:500) in FACS buffer at 4° C. for 30 min. After washing three times with FACS buffer, surface CRT and ERP57 was detected by cytofluorometric analysis on a FACS Vantage. In some experiments, cells were fixed with 4% paraformaldehyde, counterstained with Hoechst (2 μM; Sigma), followed by fluorescence microscopic assessment.

ERP57 [2] = test: as above; assay type: cell-based, mouse; conditions: murine MCA205, B16F10, J558; human HeLa, A549, HCT116
[3] = agent alone, immunocompetent BALB/c mice, 14-day-old CT26 tumors
[4] = agent alone, immunodeficient nu/nu mice
[5] = immunodeficient (athymic) animals
[6] = CT26 cells treated in vitro with agent alone, immunocompetent BALB/c mice
[7] = pre-incubation for 1 h with the inhibitor

## COC(=O)C[C@H](NC(=O)[C@H](C)NC(=O)[C@@H](NC(=O)OCc1ccccc1)C(C)C)C(=O)CF [Z-VAD-fmk] (Cbz-Val-Ala-Asp(OMe)-CH2F)
CT26 tumor cells; combined with doxorubicin
  effect on immunogenicity of doxorubicin-elicited cell death: reduces the immunogenicity of doxorubicin-elicited cell death

## CO[C@H]([C@H](O)CC(=O)[C@@H](C)[C@@H](O)CC[C@@H](C)[C@@H]1O[C@]2(CC[C@@H](C)[C@H](CC[C@H](C)C(C)=O)O2)CC[C@@H]1C)[C@H](OC(=O)C[C@@H](O)C1=C(C)C(=O)OC1=O)C(C)C [tautomycin]
CT26 tumors; [3]
  therapeutic effect of single intratumoral injection: no major therapeutic effect
CT26 tumors; [4]
  therapeutic effect of single intratumoral injection: no major therapeutic effect
CT26 tumors; immunocompetent animals
  therapeutic effect of intratumoral injection combined with etoposide or mitomycin C: stable disease or complete tumor regression
CT26 tumors; [5]
  therapeutic effect of intratumoral injection combined with etoposide or mitomycin C: not in athymic
CRT
  CRT exposure at cell surface: efficiently induced
  CRT exposure of cells treated with etoposide plus inhibitor: greatly enhanced
ERP57 [1]
  ERP57 exposure at cell surface: efficiently induced
  ERP57 exposure of cells treated with etoposide plus inhibitor: greatly enhanced
CT26 tumor cells; [6]
  immunogenicity of cell death (protection against tumor growth on rechallenge): not sufficient to induce immunogenic cell death
CT26 tumor cells; mouse, in vivo
  immunogenic potential of cells succumbing to etoposide or mitomycin C: greatly enhanced

## O=C(/C=C/c1ccccc1)NC(NC(=S)Nc1cccc2cccnc12)C(Cl)(Cl)Cl (centres unmarked) [salubrinal]
CT26 tumors; [3]
  therapeutic effect of single intratumoral injection: no major therapeutic effect
CT26 tumors; [4]
  therapeutic effect of single intratumoral injection: no major therapeutic effect
CT26 tumors; immunocompetent animals
  therapeutic effect of intratumoral injection combined with etoposide or mitomycin C: stable disease or complete tumor regression
CT26 tumors; [5]
  therapeutic effect of intratumoral injection combined with etoposide or mitomycin C: not in athymic
ERP57 [2]
  ERP57 exposure on panel of tumor cell lines: induced
CRT
  CRT exposure at cell surface: efficiently induced
  CRT exposure of cells treated with etoposide plus inhibitor: greatly enhanced
CRT; murine MCA205, B16F10, J558, human HeLa, A549, HCT116
  CRT exposure on panel of tumor cell lines: induced
ERP57 [1]
  ERP57 exposure at cell surface: efficiently induced
  ERP57 exposure of cells treated with etoposide plus inhibitor: greatly enhanced
CT26 tumor cells; [6]
  immunogenicity of cell death (protection against tumor growth on rechallenge): not sufficient to induce immunogenic cell death
CT26 tumor cells; inhibitor combined with etoposide or mitomycin C
  immunogenic potential of cells succumbing to etoposide or mitomycin C: greatly enhanced

## arsenite
CT26 tumor cells; mouse, in vivo
  immunogenicity of cell death (protection against tumor growth on rechallenge): failed to induce immunogenic apoptosis

## CC[C@@]1(O)C(=O)OCc2c1cc1n(c2=O)Cc2cc3ccccc3nc2-1 [camptothecin]
CT26 tumor cells; [6]
  immunogenicity of cell death (protection against tumor growth on rechallenge): failed to induce immunogenic apoptosis

## C[C@H]1CCC/C=C/[C@@H]2C[C@H](O)C[C@H]2[C@H](O)/C=C/C(=O)O1 [brefeldin]
CT26 tumor cells; [6]
  immunogenicity of cell death (protection against tumor growth on rechallenge): failed to induce immunogenic apoptosis

## CC(=O)N[C@@H](CSC(=O)[C@]1([C@@H](O)C(C)C)NC(=O)[C@H](C)[C@@H]1O)C(=O)O [loctacystin]
CT26 tumor cells; [6]
  immunogenicity of cell death (protection against tumor growth on rechallenge): failed to induce immunogenic apoptosis

## CC(C)C[C@@H](C=O)NC(=O)[C@H](CC(C)C)NC(=O)[C@H](CC(C)C)NC(=O)OCc1ccccc1 [MG132] (Cbz-Leu-Leu-Leu-aldehyde)
CT26 tumor cells; [6]
  immunogenicity of cell death (protection against tumor growth on rechallenge): failed to induce immunogenic apoptosis

## COc1cc([C@@H]2c3cc4c(cc3[C@@H](O[C@@H]3O[C@@H]5CO[C@@H](C)O[C@H]5[C@H](O)[C@H]3O)[C@H]3COC(=O)[C@H]23)OCO4)cc(OC)c1O [etoposide]
CT26 tumors; [3]
  therapeutic effect of single intratumoral injection: no major therapeutic effect
CT26 tumors; [4]
  therapeutic effect of single intratumoral injection: no major therapeutic effect
CT26 tumor cells; [6]
  immunogenicity of cell death (protection against tumor growth on rechallenge): failed to induce immunogenic apoptosis; also recorded: poorly immunogenic

## tunicamycin
CT26 tumor cells; [6]
  immunogenicity of cell death (protection against tumor growth on rechallenge): failed to induce immunogenic apoptosis

## C/C1=C/C(=O)O[C@@H]2C[C@@H](CC[C@H](C)/C=C\C=C\CC1)O[C@@](O)([C@@H]1CSC(=O)N1)C2 [latrunculin A]
CRT; [7]
  effect on CRT exposure induced by anthracyclines and PP1/GADD34 inhibitors: abolished
ERP57 [1]; [7]
  effect on ERP57 exposure induced by anthracyclines and PP1/GADD34 inhibitors: abolished

## CCCCCCCCCCCCC/C=C/[C@@H](O)[C@H](CO)NC(C)=O [C2 ceramide]
CT26 tumor cells; [6]
  immunogenicity of cell death (protection against tumor growth on rechallenge): failed to induce immunogenic apoptosis

## C/C=C(/C)C(=O)O[C@H]1C(C)=C2[C@H]([C@@H]1OC(=O)CCCCCCC)[C@@](C)(OC(C)=O)C[C@H](OC(=O)CCC)[C@@]1(O)[C@H]2OC(=O)[C@@]1(C)O [thapsigargin]
CT26 tumor cells; [6]
  immunogenicity of cell death (protection against tumor growth on rechallenge): failed to induce immunogenic apoptosis

## CC(=O)O[C@H]1C(=O)[C@@]2(C)[C@H]([C@H](OC(=O)c3ccccc3)[C@]3(O)C[C@H](OC(=O)[C@H](O)[C@@H](NC(=O)c4ccccc4)c4ccccc4)C(C)=C1C3(C)C)[C@]1(OC(C)=O)CO[C@@H]1C[C@@H]2O [paclitaxel]
CRT
  time after treatment at which CRT exposure is detectable: 1 h
ERP57 [1]
  time after treatment at which ERP57 exposure is detectable: 1 h

## CO[C@@]12[C@H](COC(N)=O)C3=C(C(=O)C(C)=C(N)C3=O)N1C[C@@H]1N[C@@H]12 [mitomycin C]
CT26 tumors; mouse, in vivo
  therapeutic effect of single intratumoral injection: no major therapeutic effect
CT26 tumor cells; [6]
  immunogenicity of cell death (protection against tumor growth on rechallenge): failed to induce immunogenic apoptosis

## CCCC[C@@H](C=O)NC(=O)[C@H](CC(C)C)NC(=O)[C@H](CC(C)C)NC(C)=O [ALLN] (Ac-Leu-Leu-[Nle]-aldehyde)
CT26 tumor cells; [6]
  immunogenicity of cell death (protection against tumor growth on rechallenge): failed to induce immunogenic apoptosis

## CCOc1ccc(-c2nc3ccc(-c4nc5ccc(N6CCN(C)CC6)cc5[nH]4)cc3[nH]2)cc1 [Hoechst 33342]
CT26 tumor cells; [6]
  immunogenicity of cell death (protection against tumor growth on rechallenge): failed to induce immunogenic apoptosis

## O=C1[O][Pt]2([NH][C@@H]3CCCC[C@H]3[NH]2)[O]C1=O [oxaliplatin]
CRT
  time after treatment at which CRT exposure is detectable: 1 h
ERP57 [1]
  time after treatment at which ERP57 exposure is detectable: 1 h

## CC(=O)O[C@@]12CO[C@@H]1C[C@H](O)[C@@]1(C)C(=O)[C@H](O)C3=C(C)[C@@H](OC(=O)[C@H](O)[C@@H](NC(=O)OC(C)(C)C)c4ccccc4)C[C@@](O)([C@@H](OC(=O)c4ccccc4)[C@H]21)C3(C)C [taxotere, Docetaxel]
CRT
  time after treatment at which CRT exposure is detectable: 1 h
ERP57 [1]
  time after treatment at which ERP57 exposure is detectable: 1 h

## CCCCCCCCCCCCC/C=C/[C@@H](O)[C@H](CO)NC(=O)CCCCCCCCCCCCCCC [C16-ceramide]
CRT
  time after treatment at which CRT exposure is detectable: 1 h
ERP57 [1]
  time after treatment at which ERP57 exposure is detectable: 1 h

## CC(=O)[C@]1(O)Cc2c(O)c3c(c(O)c2[C@@H](O[C@H]2C[C@H](N)[C@H](O)[C@H](C)O2)C1)C(=O)c1ccccc1C3=O [idarubicin]
CRT
  time after treatment at which CRT exposure is detectable: 1 h
CT26 tumor cells; [6]
  immunogenicity of cell death (protection against tumor growth on rechallenge): elicited immunogenic cell death
